Assay results as given in ChEMBL document CHEMBL3797188, “Piperidine derivatives as nonprostanoid IP receptor agonists 2” (Bioorg Med Chem Lett, 2016).

Assays:
[1] = Antiplatelet activity in human platelet rich plasma assessed as inhibition of ADP-induced platelet aggregation; format: functional, cell-free
[2] = Cmax in fasted dog at 0.5 mg/kg, po; format: ADME, organism-based, Canis lupus familiaris; parameters: dose 0.5 mg/kg, route oral; conditions: in vivo
[3] = Oral bioavailability in fasted dog at 0.5 mg/kg; format: ADME, organism-based, Canis lupus familiaris; conditions: in vivo
Prostacyclin receptor = Prostacyclin receptor (Homo sapiens, UniProt P43119); assay: Binding affinity to human IP receptor
[4] = biological target: Prostaglandin E2 receptor EP2 subtype (Homo sapiens, UniProt P43116); assay: Binding affinity to human EP2 receptor
[5] = biological target: T1, Prostaglandin E2 receptor EP3 subtype (Homo sapiens, UniProt P43115); assay: Binding affinity to human EP3 receptor
T1 sequence (P43115 whole entry): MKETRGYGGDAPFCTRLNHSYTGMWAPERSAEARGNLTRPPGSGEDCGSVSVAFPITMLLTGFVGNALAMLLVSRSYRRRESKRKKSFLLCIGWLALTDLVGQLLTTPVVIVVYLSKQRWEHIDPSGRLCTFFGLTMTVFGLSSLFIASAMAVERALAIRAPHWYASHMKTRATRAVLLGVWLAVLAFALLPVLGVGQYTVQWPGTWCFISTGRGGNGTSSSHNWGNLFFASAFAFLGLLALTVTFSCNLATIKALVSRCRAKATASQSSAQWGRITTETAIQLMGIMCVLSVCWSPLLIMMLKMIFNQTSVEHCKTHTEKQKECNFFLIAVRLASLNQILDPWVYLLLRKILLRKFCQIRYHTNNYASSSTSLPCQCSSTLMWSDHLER

[6] = biological target: Prostaglandin E2 receptor EP4 subtype (Homo sapiens, UniProt P35408); assay: Binding affinity to human EP4 receptor
[7] = biological target: Prostaglandin F2-alpha receptor (Homo sapiens, UniProt P43088); assay: Binding affinity to human FP receptor
Thromboxane A2 receptor = biological target: T2, Thromboxane A2 receptor (Homo sapiens, UniProt P21731); assay: Binding affinity to human TP receptor
T2 sequence (P21731 whole entry): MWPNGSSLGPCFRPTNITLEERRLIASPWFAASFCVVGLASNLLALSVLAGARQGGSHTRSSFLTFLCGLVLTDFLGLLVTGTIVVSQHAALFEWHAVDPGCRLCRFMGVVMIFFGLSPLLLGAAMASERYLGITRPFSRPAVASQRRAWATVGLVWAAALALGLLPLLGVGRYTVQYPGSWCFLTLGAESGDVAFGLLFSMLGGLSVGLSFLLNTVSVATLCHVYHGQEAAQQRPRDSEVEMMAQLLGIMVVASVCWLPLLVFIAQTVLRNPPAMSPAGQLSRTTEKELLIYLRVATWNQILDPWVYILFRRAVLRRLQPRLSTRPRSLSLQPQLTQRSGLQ

Sequence of Prostaglandin F2-alpha receptor (P43088 whole entry): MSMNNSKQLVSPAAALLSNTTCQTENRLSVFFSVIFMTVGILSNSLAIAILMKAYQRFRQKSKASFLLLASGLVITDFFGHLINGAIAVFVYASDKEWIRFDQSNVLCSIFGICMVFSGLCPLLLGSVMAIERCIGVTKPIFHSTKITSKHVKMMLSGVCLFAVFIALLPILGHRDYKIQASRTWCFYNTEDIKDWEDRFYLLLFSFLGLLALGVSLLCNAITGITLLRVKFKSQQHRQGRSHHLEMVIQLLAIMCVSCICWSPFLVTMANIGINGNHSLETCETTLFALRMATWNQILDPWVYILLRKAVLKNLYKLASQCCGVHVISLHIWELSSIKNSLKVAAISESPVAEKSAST
Sequence of Prostacyclin receptor (P43119 whole entry): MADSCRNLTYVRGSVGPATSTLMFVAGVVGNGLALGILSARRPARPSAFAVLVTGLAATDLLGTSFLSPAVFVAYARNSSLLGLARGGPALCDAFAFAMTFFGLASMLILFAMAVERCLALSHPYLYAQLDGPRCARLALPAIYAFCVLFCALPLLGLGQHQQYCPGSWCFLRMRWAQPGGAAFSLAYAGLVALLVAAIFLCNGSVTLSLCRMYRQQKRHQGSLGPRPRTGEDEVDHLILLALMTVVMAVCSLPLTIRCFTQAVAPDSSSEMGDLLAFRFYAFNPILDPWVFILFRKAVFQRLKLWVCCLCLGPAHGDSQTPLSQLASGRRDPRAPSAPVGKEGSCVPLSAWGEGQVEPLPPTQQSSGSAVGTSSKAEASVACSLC
Sequence of Prostaglandin E2 receptor EP4 subtype (P35408 whole entry): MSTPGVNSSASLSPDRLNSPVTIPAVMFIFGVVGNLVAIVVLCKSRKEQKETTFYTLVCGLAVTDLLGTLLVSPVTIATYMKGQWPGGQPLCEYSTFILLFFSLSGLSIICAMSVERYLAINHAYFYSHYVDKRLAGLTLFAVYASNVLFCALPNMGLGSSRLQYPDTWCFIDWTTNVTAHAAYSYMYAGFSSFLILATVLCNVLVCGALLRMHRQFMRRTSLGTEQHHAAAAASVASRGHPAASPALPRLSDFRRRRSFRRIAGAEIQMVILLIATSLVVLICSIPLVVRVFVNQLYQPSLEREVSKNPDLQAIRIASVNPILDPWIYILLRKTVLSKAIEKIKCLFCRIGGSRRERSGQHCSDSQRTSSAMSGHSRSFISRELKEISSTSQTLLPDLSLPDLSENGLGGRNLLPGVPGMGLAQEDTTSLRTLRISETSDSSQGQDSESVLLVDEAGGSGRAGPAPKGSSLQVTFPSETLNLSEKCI
Sequence of Prostaglandin E2 receptor EP2 subtype (P43116 whole entry): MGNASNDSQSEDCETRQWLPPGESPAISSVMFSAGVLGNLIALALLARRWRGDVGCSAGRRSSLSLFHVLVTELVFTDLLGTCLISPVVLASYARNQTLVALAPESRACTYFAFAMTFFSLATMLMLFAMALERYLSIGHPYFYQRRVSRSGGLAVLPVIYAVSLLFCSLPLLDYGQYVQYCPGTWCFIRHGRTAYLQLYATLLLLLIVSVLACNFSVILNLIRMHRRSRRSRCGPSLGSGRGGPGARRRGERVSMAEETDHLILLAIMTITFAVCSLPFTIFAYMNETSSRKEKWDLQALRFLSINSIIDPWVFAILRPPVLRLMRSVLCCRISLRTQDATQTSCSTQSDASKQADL

Row | SMILES | IC50 [1] | other results
1 | O=C(O)COC1CCN(CCN(C(=O)c2ccccc2)c2ccc(Cl)cc2)CC1 | 440 nM | 
2 | Cc1ccc(N(CCN2CCC(OCC(=O)O)CC2)C(=O)c2ccccc2)cc1 | 220 nM | 
3 | Cc1ccc(N(CCN2CCC(OCC(=O)O)CC2)C(=O)c2ccc(C(F)(F)F)cc2)cc1 | > 10000 nM | 
4 | COc1ccc(OC)c(C(=O)N(CCN2CCC(OCC(=O)O)CC2)c2ccc(C)cc2)c1 | > 3000 nM | 
5 | Cc1ccc(N(CCN2CCC(OCC(=O)O)CC2)C(=O)c2cccc(C(F)(F)F)c2)cc1 | 20000 nM | 
6 | O=C(O)COC1CCN(CCN(C(=O)c2cccc(C(F)(F)F)c2)c2ccc(Cl)cc2)CC1 | > 10000 nM | 
7 | Cc1ccc(N(CCN2CCC(OCC(=O)O)CC2)C(=O)c2cccc(Cl)c2)cc1 | 100 nM | 
8 | Cc1ccc(N(CCN2CCC(OCC(=O)O)CC2)C(=O)c2ccc(-c3ccccc3)cc2)cc1 | > 10000 nM | 
9 | COc1ccc(C(=O)N(CCN2CCC(OCC(=O)O)CC2)c2ccc(Cl)cc2)cc1 | 3100 nM | 
10 | COc1ccc(C(=O)N(CCN2CCC(OCC(=O)O)CC2)c2ccc(C)cc2)cc1OC | > 3000 nM | 
11 | Cc1ccc(N(CCN2CCC(OCC(=O)O)CC2)C(=O)c2ccc(Cl)cc2)cc1 | 690 nM | 
12 | Cc1ccc(N(CCN2CCC(OCC(=O)O)CC2)C(=O)c2ccc(F)cc2)cc1 | 970 nM | 
13 | O=C(O)COC1CCN(CCN(C(=O)c2ccc(F)cc2)c2ccc(Cl)cc2)CC1 | 2000 nM | 
14 | O=C(O)COC1CCN(CCN(C(=O)c2cccc(Cl)c2)c2ccc(Cl)cc2)CC1 | 350 nM | 
15 | COc1ccc(C(=O)N(CCN2CCC(OCC(=O)O)CC2)c2ccc(C)cc2)cc1 | 1200 nM | 
16 | O=C(O)COC1CCN(CCN(C(=O)c2ccc(C(F)(F)F)cc2)c2ccc(Cl)cc2)CC1 | > 10000 nM | 
17 | Cc1ccc(N(CCN2CCC(OCC(=O)O)CC2)C(=O)c2ccc3c(c2)OCO3)cc1.Cl.O |  | Cmax [2]: 130 ng/mL; bioavailability [3]: 76%; Ki (Prostacyclin receptor): 400 nM; Ki [4]: > 50000 nM; Ki [5]: > 50000 nM; Ki [6]: > 50000 nM; Ki [7]: > 50000 nM; Ki (Thromboxane A2 receptor): > 50000 nM
18 | COc1cccc(C(=O)N(CCN2CCC(OCC(=O)O)CC2)c2ccc(C)cc2)c1 | 32 nM | 
19 | Cc1ccc(N(CCN2CCC(OCC(=O)O)CC2)C(=O)c2ccc3c(c2)OCO3)cc1 | 21 nM | 
20 | Cc1ccc(N(CCN2CCC(OCC(=O)O)CC2)C(=O)c2cccc(C)c2)cc1 | 160 nM | 
21 | COc1cccc(C(=O)N(CCN2CCC(OCC(=O)O)CC2)c2ccc(Cl)cc2)c1 | 74 nM | 
22 | O=C(O)COC1CCN(CCN(C(=O)c2ccc(-c3ccccc3)cc2)c2ccc(Cl)cc2)CC1 | > 10000 nM | 
23 | Cc1cccc(C(=O)N(CCN2CCC(OCC(=O)O)CC2)c2ccc(Cl)cc2)c1 | 310 nM | 
24 | O=C(O)COC1CCN(CCN(C(=O)c2cccc(F)c2)c2ccc(Cl)cc2)CC1 | 340 nM | 
25 | COc1cccc(C(=O)N(CCN2CCC(OCC(=O)O)CC2)c2ccc(C)cc2)c1OC | 1600 nM | 
26 | COc1cc(OC)cc(C(=O)N(CCN2CCC(OCC(=O)O)CC2)c2ccc(C)cc2)c1 | 530 nM | 
27 | Cc1ccc(N(CCN2CCC(OCC(=O)O)CC2)C(=O)c2cccc(F)c2)cc1 | 160 nM | 
28 | O=C(O)COC1CCN(CCN(C(=O)c2ccc(Cl)cc2)c2ccc(Cl)cc2)CC1 | 1500 nM | 
